Data as given in patent publication US20110173718A1, “HERBICIDE TOLERANT PLANTS” (SYNGENTA CROP PROTECTION, INC., priority 2008, published 2011).

Tested on: weeds
Test: Glasshouse weed control by HST/HPPD (mesotrione) mixtures, post-emergence
Assay type: in vivo
Conditions: post-emergence; for % damage, 1 g ai ha^−1 mesotrione / % damage, no-mesotrione: 14 DAT; for colby: difference to Colby expectation
Protocol: Weed seeds are planted out in trays containing suitable soil (for example 50% peat, 50% John Innes soil no 3) and grown in the glass house conditions under 24-27° C. day; 18-21° C. night and approximately a 14 h (or longer in UK summer) photoperiod. Humidity is ˜65% and light levels up to 2000 μmol/m^2 at bench level. Trays are sprayed with test chemicals dissolved in water with 0.2-0.25% X-77 surfactant and sprayed from a boom on a suitable track sprayer moving at about 2 mph in a suitable track sprayer (for example a DeVries spray chamber with the nozzle about 2 inches from the plant tops). Spray volume is suitably 500-1000 l/ha. Sprays are carried out both pre-emergence and over small plants at about 7-12 d post-emergence
Plants are assessed 14 DAT and herbicidal damage is scored on a scale from 0 to 100%. The HST inhibitor compound 2.30 (designated compound A in table 16 and 17), haloxydine (compound 1.1) and compound 2.13 (designated compound AE in tables 16 and 17) are sprayed at rates between 0 and 500 g/ha.

[1] = ALOMY, 16 g/ha + 1 g ai/ha mesotrione
[2] = ALOMY, 31 g/ha + 1 g ai/ha mesotrione
[3] = ALOMY, 63 g/ha + 1 g ai/ha mesotrione
[4] = ALOMY, 125 g/ha + 1 g ai/ha mesotrione
[5] = ALOMY, 250 g/ha + 1 g ai/ha mesotrione
[6] = ALOMY, 500 g/ha + 1 g ai/ha mesotrione
[7] = ECHCG, 16 g/ha + 1 g ai/ha mesotrione
[8] = ECHCG, 31 g/ha + 1 g ai/ha mesotrione
[9] = ECHCG, 63 g/ha + 1 g ai/ha mesotrione
[10] = ECHCG, 125 g/ha + 1 g ai/ha mesotrione
[11] = ECHCG, 250 g/ha + 1 g ai/ha mesotrione
[12] = ECHCG, 500 g/ha + 1 g ai/ha mesotrione
[13] = SETFA, 16 g/ha + 1 g ai/ha mesotrione
[14] = SETFA, 31 g/ha + 1 g ai/ha mesotrione
[15] = SETFA, 63 g/ha + 1 g ai/ha mesotrione
[16] = SETFA, 125 g/ha + 1 g ai/ha mesotrione
[17] = SETFA, 250 g/ha + 1 g ai/ha mesotrione
[18] = SETFA, 500 g/ha + 1 g ai/ha mesotrione

## O=c1c(Cl)c(F)[nH]c(F)c1Cl [Haloxidine]
[1]
  % damage, 1 g ai ha^−1 mesotrione: 23%
  colby: 10
ALOMY, 16 g/ha
  % damage, no-mesotrione: 13%
[2]
  % damage, 1 g ai ha^−1 mesotrione: 33%
  colby: 7
ALOMY, 31 g/ha
  % damage, no-mesotrione: 27%
[3]
  % damage, 1 g ai ha^−1 mesotrione: 68%
  colby: 15
ALOMY, 63 g/ha
  % damage, no-mesotrione: 53%
[4]
  % damage, 1 g ai ha^−1 mesotrione: 83%
  colby: 5
ALOMY, 125 g/ha
  % damage, no-mesotrione: 78%
[5]
  % damage, 1 g ai ha^−1 mesotrione: 92%
  colby: 2
ALOMY, 250 g/ha
  % damage, no-mesotrione: 90%
[6]
  % damage, 1 g ai ha^−1 mesotrione: 95%
  colby: 0
ALOMY, 500 g/ha
  % damage, no-mesotrione: 95%
[7]
  % damage, 1 g ai ha^−1 mesotrione: 57%
  colby: 18
ECHCG, 16 g/ha
  % damage, no-mesotrione: 33%
[8]
  % damage, 1 g ai ha^−1 mesotrione: 67%
  colby: 11
ECHCG, 31 g/ha
  % damage, no-mesotrione: 52%
[9]
  % damage, 1 g ai ha^−1 mesotrione: 75%
  colby: 15
ECHCG, 63 g/ha
  % damage, no-mesotrione: 57%
[10]
  % damage, 1 g ai ha^−1 mesotrione: 78%
  colby: 6
ECHCG, 125 g/ha
  % damage, no-mesotrione: 70%
[11]
  % damage, 1 g ai ha^−1 mesotrione: 97%
  colby: 12
ECHCG, 250 g/ha
  % damage, no-mesotrione: 83%
[12]
  % damage, 1 g ai ha^−1 mesotrione: 100%
  colby: 2
ECHCG, 500 g/ha
  % damage, no-mesotrione: 98%
[13]
  % damage, 1 g ai ha^−1 mesotrione: 27%
  colby: −15
SETFA, 16 g/ha
  % damage, no-mesotrione: 42%
[14]
  % damage, 1 g ai ha^−1 mesotrione: 82%
  colby: 13
SETFA, 31 g/ha
  % damage, no-mesotrione: 68%
[15]
  % damage, 1 g ai ha^−1 mesotrione: 92%
  colby: 12
SETFA, 63 g/ha
  % damage, no-mesotrione: 80%
[16]
  % damage, 1 g ai ha^−1 mesotrione: 97%
  colby: 3
SETFA, 125 g/ha
  % damage, no-mesotrione: 93%
[17]
  % damage, 1 g ai ha^−1 mesotrione: 100%
  colby: 0
SETFA, 250 g/ha
  % damage, no-mesotrione: 100%
[18]
  % damage, 1 g ai ha^−1 mesotrione: 100%
  colby: 0
SETFA, 500 g/ha
  % damage, no-mesotrione: 100%

## O=c1c(-c2c(F)ccc(F)c2Cl)c(O)c2cccnc2n1CC(F)F [Compound 2.13]
[1]
  % damage, 1 g ai ha^−1 mesotrione: 0%
  colby: 0
ALOMY, 16 g/ha
  % damage, no-mesotrione: 0%
[2]
  % damage, 1 g ai ha^−1 mesotrione: 2%
  colby: 2
ALOMY, 31 g/ha
  % damage, no-mesotrione: 0%
[3]
  % damage, 1 g ai ha^−1 mesotrione: 3%
  colby: 3
ALOMY, 63 g/ha
  % damage, no-mesotrione: 0%
[4]
  % damage, 1 g ai ha^−1 mesotrione: 0%
  colby: 0
ALOMY, 125 g/ha
  % damage, no-mesotrione: 0%
[5]
  % damage, 1 g ai ha^−1 mesotrione: 3%
  colby: 2
ALOMY, 250 g/ha
  % damage, no-mesotrione: 2%
[6]
  % damage, 1 g ai ha^−1 mesotrione: 5%
  colby: −2
ALOMY, 500 g/ha
  % damage, no-mesotrione: 7%
[7]
  % damage, 1 g ai ha^−1 mesotrione: 5%
  colby: −3
ECHCG, 16 g/ha
  % damage, no-mesotrione: 0%
[8]
  % damage, 1 g ai ha^−1 mesotrione: 5%
  colby: −3
ECHCG, 31 g/ha
  % damage, no-mesotrione: 0%
[9]
  % damage, 1 g ai ha^−1 mesotrione: 8%
  colby: 0
ECHCG, 63 g/ha
  % damage, no-mesotrione: 0%
[10]
  % damage, 1 g ai ha^−1 mesotrione: 15%
  colby: 7
ECHCG, 125 g/ha
  % damage, no-mesotrione: 0%
[11]
  % damage, 1 g ai ha^−1 mesotrione: 22%
  colby: 13
ECHCG, 250 g/ha
  % damage, no-mesotrione: 0%
[12]
  % damage, 1 g ai ha^−1 mesotrione: 20%
  colby: 12
ECHCG, 500 g/ha
  % damage, no-mesotrione: 0%
[13]
  % damage, 1 g ai ha^−1 mesotrione: 0%
  colby: 0
SETFA, 16 g/ha
  % damage, no-mesotrione: 0%
[14]
  % damage, 1 g ai ha^−1 mesotrione: 0%
  colby: 0
SETFA, 31 g/ha
  % damage, no-mesotrione: 0%
[15]
  % damage, 1 g ai ha^−1 mesotrione: 0%
  colby: 0
SETFA, 63 g/ha
  % damage, no-mesotrione: 0%
[16]
  % damage, 1 g ai ha^−1 mesotrione: 0%
  colby: 0
SETFA, 125 g/ha
  % damage, no-mesotrione: 0%
[17]
  % damage, 1 g ai ha^−1 mesotrione: 0%
  colby: 0
SETFA, 250 g/ha
  % damage, no-mesotrione: 0%
[18]
  % damage, 1 g ai ha^−1 mesotrione: 0%
  colby: 0
SETFA, 500 g/ha
  % damage, no-mesotrione: 0%
